Entries after “also recorded” stand apart in the source; their conditions may differ. Marks after values point to notes of the source that are not given here.
How the values were obtained:
[1] = 100 μg/ml; data derive from ref 64; cited from earlier work
[2] = cited from earlier work
[3] = ex vivo stability in mouse plasma; type: in vitro ADME; conditions: 100 μg/ml, room temperature, 0-180 min
Protocol: An ex vivo evaluation of drug stability was conducted in mouse and human plasma samples (WuXi AppTec, Shanghai, China). […] Samples were, thereafter, incubated at room temperature for 0, 15, 30, 60, 120, and 180 min before immediate drug extraction. […] Extraction was performed by adding ethyl acetate containing the internal standard (donepezil—known to undergo first-pass hepatic metabolism) to the spiked sample (100 μL), vortexed for 1 min, and centrifuged at 13,000 rpm, 4 °C for 10 min. The supernatant was used for LC–MS/MS analysis.
LC–MS/MS analysis was performed with a Vanquish Flex UHPLC (Thermo Scientific) and a Orbitrap Exploris 240 mass spectrometer (Thermo Scientific). Samples were separated on a C18 UHPLC column (100 mm × 2.1 mm, 3 μm; Thermo Scientific). The mobile phase A for LC separation was 0.1% formic acid and the mobile phase B was 0.1% formic acid in methanol. The chromatography gradient was designed for a linear increase from 5% B in 1 min, 5% B to 95% B in 8 min, 95% B in 3 min, and 5% B in 3 min. The flow rate was maintained at 0.3 mL/min. Mass spectra were acquired using the data-dependent Top 4 MS2 (ddMS2) method with a mass scan (100–1000 m/z) and 120,000 MS resolution.

[4] = aqueous solubility; type: physicochemical
Protocol: This coarse drug suspension was transferred into Eppendorf microtubes containing approximately 0.4 g of 0.1–0.2 mm yttrium-stabilized zirconia-silica beads (Silibeads® Typ ZY Sigmund Lindner, Germany). The drug was vortexed twice, at 3000 rpm for 45 min, using a beads-milling cell disruptor (Disruptor Genie®, Scientific Industries, USA). The resulting nanosuspension was collected from each microtube and sieved through a 40 µm filter (Cell Strainer, Falcon # 35234) to remove the zirconia-silica beads. […] The stock drug concentration was 10.83 mg/ml (37.4 mM). The drug vehicle was essentially the same ratio of Tween 80 and water, processed in the identical manner as the drug preparation.

[5] = tested on: chicken embryos; assay: chicken embryo teratogenicity at E2.5; type: in vivo
Protocol: All studies with chicken embryos were performed in line with UK Home Office regulations and followed guidelines, standards and practices governed by the University of Aberdeen Ethics Committee (Scotland, UK). Fertilized chicken eggs were acquired from Henry Stewart & Co Ltd, Norfolk UK. […] Embryos were incubated at 37 °C to reach E2.5 (early developmental stages). Eggs were then opened and the embryonic membranes protecting the embryos were removed with forceps. Chicken embryos usually lie on one side, so the left side is directly against the yolk and the right side can be observed. […] Consequent to limited drug diffusion when applied to the right side of an embryo, the right side is deemed the ‘treatment’ side and the left (facing internally towards the yolk sac) is considered normal after treatment and thus can act as an internal control.

[6] = target: T1, human cereblon (Homo sapiens, UniProt Q96SW2); assay: cereblon/BRD3 binding assay (AlphaScreen in methods, FRET assay in results); conditions: dBET1-Cereblon-BRD3 interaction
T1 construct: purchased BPS Bioscience 79770
T1 sequence (Q96SW2 whole entry): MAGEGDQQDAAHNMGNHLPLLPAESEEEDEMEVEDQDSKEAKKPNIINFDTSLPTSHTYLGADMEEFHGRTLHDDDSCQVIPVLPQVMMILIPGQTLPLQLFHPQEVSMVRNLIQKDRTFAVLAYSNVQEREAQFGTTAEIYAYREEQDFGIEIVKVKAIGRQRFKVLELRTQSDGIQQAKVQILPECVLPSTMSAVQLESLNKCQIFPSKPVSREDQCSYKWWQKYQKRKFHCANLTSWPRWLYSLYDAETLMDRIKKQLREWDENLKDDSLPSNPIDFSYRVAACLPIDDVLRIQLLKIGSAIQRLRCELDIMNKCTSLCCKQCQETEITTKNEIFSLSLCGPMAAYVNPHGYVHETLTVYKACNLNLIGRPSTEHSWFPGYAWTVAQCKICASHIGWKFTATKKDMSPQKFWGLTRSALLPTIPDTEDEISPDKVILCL
T1 sequence (Q16531 whole entry partner): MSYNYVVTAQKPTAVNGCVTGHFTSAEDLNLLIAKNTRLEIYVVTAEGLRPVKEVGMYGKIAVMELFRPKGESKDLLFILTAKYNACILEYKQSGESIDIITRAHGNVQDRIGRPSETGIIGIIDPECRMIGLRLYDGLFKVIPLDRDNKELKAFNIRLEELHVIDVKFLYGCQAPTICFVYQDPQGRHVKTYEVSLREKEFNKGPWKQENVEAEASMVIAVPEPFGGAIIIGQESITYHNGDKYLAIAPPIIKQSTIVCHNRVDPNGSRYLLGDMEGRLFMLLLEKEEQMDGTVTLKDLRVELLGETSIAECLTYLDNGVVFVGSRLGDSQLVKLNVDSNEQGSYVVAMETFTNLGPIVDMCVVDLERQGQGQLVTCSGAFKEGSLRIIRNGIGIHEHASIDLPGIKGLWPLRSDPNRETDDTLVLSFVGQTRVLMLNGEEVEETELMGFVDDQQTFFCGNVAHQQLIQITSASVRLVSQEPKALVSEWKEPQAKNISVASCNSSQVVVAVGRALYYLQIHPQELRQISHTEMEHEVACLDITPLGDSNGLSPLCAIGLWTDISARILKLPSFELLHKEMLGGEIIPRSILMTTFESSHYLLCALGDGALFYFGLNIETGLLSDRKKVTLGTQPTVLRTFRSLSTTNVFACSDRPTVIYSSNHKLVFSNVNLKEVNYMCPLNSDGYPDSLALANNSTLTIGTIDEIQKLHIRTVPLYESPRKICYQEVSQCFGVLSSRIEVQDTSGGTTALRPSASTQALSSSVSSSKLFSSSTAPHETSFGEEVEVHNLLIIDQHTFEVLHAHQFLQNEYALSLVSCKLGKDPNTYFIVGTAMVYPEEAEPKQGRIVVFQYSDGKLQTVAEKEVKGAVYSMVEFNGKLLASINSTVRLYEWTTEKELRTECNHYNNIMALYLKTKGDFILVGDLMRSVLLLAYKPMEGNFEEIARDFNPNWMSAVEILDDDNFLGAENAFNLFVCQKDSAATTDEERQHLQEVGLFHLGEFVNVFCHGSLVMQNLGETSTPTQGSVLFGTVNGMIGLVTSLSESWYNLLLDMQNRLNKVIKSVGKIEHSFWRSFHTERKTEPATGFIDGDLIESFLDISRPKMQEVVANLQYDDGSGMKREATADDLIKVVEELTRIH
T1 sequence (Q13619 whole entry partner): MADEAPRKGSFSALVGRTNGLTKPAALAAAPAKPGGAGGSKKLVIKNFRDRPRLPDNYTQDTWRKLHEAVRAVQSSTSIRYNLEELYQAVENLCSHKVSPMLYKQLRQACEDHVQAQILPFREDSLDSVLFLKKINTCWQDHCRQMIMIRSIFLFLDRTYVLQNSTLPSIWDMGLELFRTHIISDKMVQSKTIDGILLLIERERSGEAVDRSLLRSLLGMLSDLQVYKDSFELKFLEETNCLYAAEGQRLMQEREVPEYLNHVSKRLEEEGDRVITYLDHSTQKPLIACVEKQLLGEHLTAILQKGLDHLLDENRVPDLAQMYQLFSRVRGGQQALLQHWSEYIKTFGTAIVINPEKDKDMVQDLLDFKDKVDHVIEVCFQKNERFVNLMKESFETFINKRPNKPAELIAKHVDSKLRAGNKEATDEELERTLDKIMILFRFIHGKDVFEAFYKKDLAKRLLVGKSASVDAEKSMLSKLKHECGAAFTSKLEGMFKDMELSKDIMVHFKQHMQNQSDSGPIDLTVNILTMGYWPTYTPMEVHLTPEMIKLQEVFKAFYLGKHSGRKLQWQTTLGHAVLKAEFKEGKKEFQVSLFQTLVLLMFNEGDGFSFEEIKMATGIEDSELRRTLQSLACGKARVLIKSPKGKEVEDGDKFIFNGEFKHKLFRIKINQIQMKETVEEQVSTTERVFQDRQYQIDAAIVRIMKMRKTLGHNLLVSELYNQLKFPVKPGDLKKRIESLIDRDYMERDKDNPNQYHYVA
T1 sequence (P62877 whole entry partner): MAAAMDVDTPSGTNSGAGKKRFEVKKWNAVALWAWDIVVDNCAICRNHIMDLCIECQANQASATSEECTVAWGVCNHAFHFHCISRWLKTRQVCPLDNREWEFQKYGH
Protocol: Following 30 min incubation with shaking at room temperature, AlphaLISA anti-FLAG Acceptor and Alpha Glutathione Donor beads (PerkinElmer) were sequentially added and then incubated for a further 1 h at room temperature for each of the added chemicals. Alpha counts were, thereafter, recorded on a Synergy Neo2 (BioTek, Agilent, Santa Clara, CA). The relative activity of the alpha signal was calculated after subtraction of the “blank value” from all readings, and the value of vehicle group was then set as 100%.

[7] = rat; cited from earlier work
[8] = tested on: RAW 264.7 cells; assay: LPS-induced inflammation in RAW 264.7 cells (viability, nitrite, TNF-α); type: cell-based, mouse; conditions: RAW 264.7, LPS 20 ng/mL, 24 h, p < 0.05
Protocol: (§1) RAW 264.7 cell culture: RAW 264.7 cells were obtained from ATCC (Manassas, VA, USA) and grown in Dulbecco’s modified Eagle’s (DMEM), high glucose, GlutaMAX™ media supplemented with 10% FBS (ThermoFisher Scientific, Asheville, NC, USA). Cells were maintained at 37 °C and 5% CO2, were propagated as described by ATCC guidelines, and were cultured as previously communicated. […] One hour later, cells were challenged with lipopolysaccharide (LPS) (20 ng/ml, E. Coli O55:B5, Sigma, St Louis, MO, USA; Cat # L4005). This LPS concentration was selected from pilot studies to provide a submaximal inflammatory insult. Twenty-four hours later, culture media was collected to quantify cell viability (CellTiter 96® Aqueous One Solution Cell Proliferation Assay kit (MTS); Promega, Madison, WI, USA, Cat # G3580), secreted TNF-α protein (ELISA MAX™ Deluxe Set Mouse TNF-α, BioLegend, CA, USA; Cat # 430915) and nitrite (Griess Reagent System, Promega, Madison, WI, USA; Cat # G2930).

[9] = as above; type: cell-based, mouse; conditions: mouse, RAW 264.7 cells, RAW 264.7, 0.6 to 60 μM, LPS 20 ng/mL, MTS, read-out: cellular viability
Protocol: as §1

Compound: Nc1cccc2c1C(=S)N(C1CCC(=O)NC1=O)C2=O (stereo not shown) [3-MP, 3-monothiopomalidomide]
- ex vivo stability in human plasma [1]: stable
- oral bioavailability [2]: 38.5%
- ex vivo stability in mouse plasma [3]: stable
- aqueous solubility [4]: poorly aqueous soluble
- developmental effect on chicken embryos ([5]; E2.5, 2.65 to 132 ug, 24 h exposure, vs DMSO controls): not teratogenic; also recorded: no adverse developmental differences or damage
- Normal embryos ([5]; E2.5, dose 2.65 ug, N 2, 24 h): 2
- Normal embryos ([5]; E2.5, dose 5.3 ug, N 3, 24 h): 3
- Normal embryos ([5]; E2.5, dose 20 ug, N 5, 24 h): 5
- Not counted embryos (died soon after application, methodology-related) ([5]; E2.5, dose 26.4 ug, N 7): 2^a
- Normal embryos ([5]; E2.5, dose 26.4 ug, N 7, 24 h): 5
- Not counted embryos (died soon after application, methodology-related) ([5]; E2.5, dose 52.8 ug, N 5): 2^a
- Normal embryos ([5]; E2.5, dose 52.8 ug, N 5, 24 h): 3
- Normal embryos ([5]; E2.5, dose 66 ug, N 3, 24 h): 3
- Normal embryos ([5]; E2.5, dose 132 ug, N 3, 24 h): 3
- IC50 [6]: 210 nM
- stability in ex vivo plasma and liver homogenate samples [7]: relatively stable
- concentration significantly reducing LPS-induced TNF-α [8]: ≥ 30 µM
- concentration significantly reducing LPS-induced nitrite [8]: ≥ 10 µM
- viability at 24 h [9]: > 90%
